Test results: publication PMC7068222, “Inhibition of Tyrosinase by Mercury Chloride: Spectroscopic and Docking Studies” (Frontiers in Pharmacology, 2020)
Like-named read-outs stand apart in the source and are kept apart here.

Legend:
[1] = molecular target: T1, immobilized tyrosinase (Agaricus bisporus, UniProt C7FF04); format: biochemical, mushroom
T1 construct: purchased Sigma-Aldrich
Procedure: Experiments were conducted to confirm the inhibitory mechanism of HgCl2 on tyrosinase furtherly by using immobilized tyrosinase. In brief, we added 200 µL of diluted tyrosinase (2500 U/mL) to each well of a 24-well polystyrene plate and then covered the plate and incubated it at 4°C overnight to produce immobilized tyrosinase. The plate was brought to room temperature, and we thoroughly decanted the solution from wells and washed the wells two times with PBS to remove the unfixed enzyme. We added 3 mL of inhibitor solution to each well and incubated them at room temperature for 30 mins to assure the fully reaction between the inhibitor and the enzyme, discarding the liquid following by washing the wells two times with PBS to remove the excess inhibitor. Then, 3 mL of PBS was added to each well, and they stood for 10 mins to make the dissociation of inhibitor-tyrosinase complex. WE thoroughly decanted the solution from wells to remove the dissociated inhibitor (the procedure was repeated three times). Finally, 3 mL of substrate (dopa) was added to each well and react at room temperature for 30 mins to test the residual activity of tyrosinase.

[2] = tested on: tyrosinase (monophenolase and diphenolase activity) in the presence of HgCl2; test: Effect of premixing amino acids with HgCl2 on tyrosinase inhibition (protection of enzyme activity); format: biochemical, mushroom
Procedure: According to the results of docking study, we furtherly checked the interactions between HgCl2 and amino acid. We assumed that if HgCl2 indeed binds to the amino acid residues of the enzyme, such as His, Val, Glu, and Ala, premixing the amino acid with HgCl2 would affect the inhibitory effects. Thus, the monophenolase and diphenolase activity of tyrosinase both were determined by adding the mixture of HgCl2 and amino acid. The mixture was prepared just before use by adding an aliquot of 200 μL HgCl2 solution to the equal volume of amino acid solution, and which was allowed to react for 10 mins at room temperature. […] In brief, 5 and 10 mmol/L solutions of His, HgCl2 were prepared beforehand, and the mixture was produced by mixing the His and HgCl2 solutions (10 mmol/L) in the volume ratio of 1:1. The spectra of the samples at the wavelengths between 200 and 800 nm were scanned by using UV spectrophotometer (UV 2550, SHIMADZU).The experiment was repeated three times.

[3] = molecular target: T2, mushroom tyrosinase (diphenolase activity) (Agaricus bisporus, UniProt C7FF04); test: Kinetic analysis of inhibition mechanism and type (enzyme-concentration plots, Lineweaver-Burk plot, secondary plot); format: biochemical; design: purchased Sigma-Aldrich
Source text: (1) 1/ν=Km/Vmax(1+[I]/Ki)1/[S]+1+[I]/Ki/Vmax and a secondary plot is presented below
(2) In.=[I]/KiVmax+1/Vmax where ν is velocity of the enzyme reaction calculated by a change in absorbance at the wavelength of 475 nm per minute in the absence and presence of HgCl2. K m and K i are the Michaelis–Menten constant and inhibition constant, respectively. The values of K m can be calculated from the equation (1). [I] and [S] are the concentrations of inhibitor and substrate, respectively. In. is the intercept value of the Lineweaver–Burk curve. K i should be calculated by the secondary plot of In. vs. [I].
The relationship between enzyme activity (expressed as the rate of the oxidation reaction) and its concentration (6.67, 13.33, 20, 26.67, and 33.33 U/mL) in the presence of different concentrations of HgCl2 (0, 4.17, 16.67, 33.33, and 66.67 μmol/L) was investigated.
Target sequence in this assay (C7FF04 1-392 limits assumed): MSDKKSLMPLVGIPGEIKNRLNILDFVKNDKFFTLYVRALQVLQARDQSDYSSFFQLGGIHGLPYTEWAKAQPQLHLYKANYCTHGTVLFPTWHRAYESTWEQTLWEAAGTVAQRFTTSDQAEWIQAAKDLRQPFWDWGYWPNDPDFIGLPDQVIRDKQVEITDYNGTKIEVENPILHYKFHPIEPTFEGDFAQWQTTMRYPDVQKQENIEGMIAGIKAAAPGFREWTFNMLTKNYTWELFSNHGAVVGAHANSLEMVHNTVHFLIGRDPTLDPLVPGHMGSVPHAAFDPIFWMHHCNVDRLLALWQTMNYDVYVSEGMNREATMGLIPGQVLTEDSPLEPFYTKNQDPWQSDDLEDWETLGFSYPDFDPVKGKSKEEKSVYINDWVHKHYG

[4] = molecular target: T2, mushroom tyrosinase (diphenolase activity); format: biochemical; details: substrate dopa 0.5 mmol/L, tyrosinase 13.33 U/mL, pH 6.8, 305 K
Target sequence in this assay (C7FF04 1-392): as the sequence (C7FF04 1-392 limits assumed) above
Procedure: The assays were carried out by using 3 mL of reaction system containing 0.5 mmol/L substrate (dopa) in 50 mmol/L PBS (pH = 6.8) at 305 K. The final concentration of tyrosinase was 13.33 U/mL. […] Relative enzymatic activity (%) = (A1-A3)/A2×100%. The experiment was repeated three times. The IC50 value was calculated as the concentration (leading to achieve 50% inhibition) according to the equation, which is obtained by curve fitting of the enzyme activity versus the concentrations of inhibitor.

[5] = molecular target: T3, tyrosinase (Agaricus bisporus, UniProt C7FF04); test: Intrinsic fluorescence quenching of tyrosinase; format: binding, mushroom; details: for Kq (quenching rate constant): Kq = Ksv/τ0, τ0 = 10^-8 s
T3 construct: purchased Sigma-Aldrich
T3 sequence (C7FF04 1-392): as the sequence (C7FF04 1-392 limits assumed) above
Procedure: The fluorescence emission spectra were obtained using Spectrofluorometer FS5 (Edinburgh Instruments, England) equipped with a 150 W xenon lamp and a thermostat bath. We added a 2.0 mL aliquot of tyrosinase solution (400 U/mL) to the quartz cuvette (1 cm path length) and gradually added 2 mmol/L solution of HgCl2 to give concentrations ranged from 0 to 400 μmol/L. After five-minute incubation periods, fluorescence in the range of 290–500 nm was measured while the excitation wavelength was fixed at 280 nm. All the fluorescence data collected from these experiments were corrected for absorption of excitation light and re-absorption of emitted light according to the following equation: ([Wang et al., 2015])
where F c and F m represent the corrected and measured fluorescence, respectively. A1 and A2 are the absorbance of HgCl2 at excitation and emission wavelengths, respectively.
To identify the interaction mechanism of HgCl2 on tyrosinase, the data of fluorescence quenching were presented in the form of a Stern-Volmer plot, using the following equation:
(4) F0/F=1+Kqτ0[Q]=1+Ksv[Q]
where, F 0 and F represent the steady-state fluorescence intensities in the absence and presence of HgCl2 (quencher), respectively, [Q] denotes the concentration of HgCl2, K q is the quenching rate constant of the biomolecule (K q = K sv/τ0), K sv is the Stern–Volmer dynamic quenching constant, and τ0 is the average lifetime of the fluorophore in the absence of quencher (τ0 = 10^-8 s). The value of K sv determined by the linear regression plot of F0/F vs. [Q] at 298 and 304 K were (2.14 ± 0.05) × 10^4 and 1.83 ± 0.03 × 10^4 L/mol, respectively. […] K sv values decreased gradually with the increase of the temperatures, which manifested that the fluorescence quenching of tyrosinase by HgCl2 was a static quenching process ([Lin et al., 2018]).
For static quenching interactions, if there are similar and independent sites in biological molecules, the apparent binding constants (K a) and the number of binding sites (n) can be obtained from the following equation:
(5) logF0−F/F=logKa+nlog[Q]

[6] = molecular target: T4, mushroom tyrosinase (monophenolase activity) (Agaricus bisporus, UniProt C7FF04); format: biochemical
T4 construct: purchased Sigma-Aldrich
T4 sequence (C7FF04 1-392 limits assumed): as above
Procedure: The method was modified based on the previous description ([Chen et al., 2016]). […] The appropriate blanks (containing both tyrosine and HgCl2 but without tyrosinase) were tested and subtracted to correct the absorbance.

[7] = from plot of log[(F0-F)/F] vs log[Q]

T1 sequence (C7FF04 1-392 limits assumed): as above

CCO [95% ethanol, ethanol, reference compound]
Relative activity (%) of immobilized tyrosinase after inhibitor treatment and washing [1]: 3.34%

C[C@H](N)C(=O)O [Ala, alanine]
effect on protecting the monophenolase activity in the presence of HgCl2 ([2]; amino acid premixed with HgCl2): no effects

N[C@@H](CCC(=O)O)C(=O)O [Glu, glutamate]
effect on protecting the monophenolase activity in the presence of HgCl2 ([2]; amino acid premixed with HgCl2): no effects

[Cl][Hg][Cl] [HgCl2, Mercuric chloride]
inhibition type (Lineweaver-Burk) ([3]; diphenolase activity, tyrosinase 13.33 U/mL): non-competitive inhibition
Ki ([3]; diphenolase, secondary plot of intercept vs inhibitor concentration, read-out: Ki (inhibition constant)): 29.4 µM
inhibition mechanism (reversibility) ([3]; plots of activity vs enzyme concentration, HgCl2 0-66.67 μmol/L): irreversible
IC50 [4]: 77.9 µM
Relative activity (%) of immobilized tyrosinase after inhibitor treatment and washing ([1]; kojic acid and HgCl2 666.67 μmol/L, 30 min incubation, PBS treatment = 100%, substrate dopa): 28.32%
Ksv (Stern-Volmer quenching constant) ([5]; 298 K): (2.14 ± 0.05) × 10^4 L/mol
Kq (quenching rate constant) ([5]; 298 K): (2.14 ± 0.05) × 10^12 L/mol/s
Ksv (Stern-Volmer quenching constant) ([5]; 304 K): 1.83 ± 0.03 × 10^4 L/mol
Kq (quenching rate constant) ([5]; 304 K): (1.83 ± 0.03) × 10^12 L/mol/s
Ka (apparent binding constant) [5, 7]: (2.87 ± 0.02) × 10^4 L/mol
n (number of binding sites) [5, 7]: 0.96 ± 0.01
lag time of monophenolase reaction at highest inhibitor concentration ([6]; prolonged with increasing inhibitor concentration, without inhibitor 1.44 min (kojic acid series), 2.00 min (HgCl2 series)): 13.4 min
IC50 ([6]; substrate tyrosine 0.5 mmol/L, tyrosinase 33.33 U/mL, pH 6.8, 305 K): 30 µM

N[C@@H](Cc1c[nH]cn1)C(=O)O [His, Histidine]
protecting capability on diphenolase activity in the presence of HgCl2 ([2]; His 10.42 μmol/L): 48.83 ± 1.89%
protecting capability on diphenolase activity in the presence of HgCl2 ([2]; His 666.67 μmol/L): 83.43 ± 2.56%
effect on protecting the diphenolase activity in the presence of HgCl2 ([2]; amino acid premixed with HgCl2): significant effect
effect on protecting the monophenolase activity in the presence of HgCl2 ([2]; amino acid premixed with HgCl2): protect the monophenolase activity

CC(C)[C@H](N)C(=O)O [Val, valine]
effect on protecting the monophenolase activity in the presence of HgCl2 ([2]; amino acid premixed with HgCl2): no effects
